According to patent US20050137251A1, “Dexanabinol and dexanabinol analogs regulate inflammation related genes” (priority 2002, published 2005):

Legend:
[1] = test system: TNF-α secretion; test: TNF-α secretion in LPS activated macrophages; assay type: cell-based; details: Mus musculus, Macrophage, read-out: IC50 for inhibition of TNF-α secretion
From the text: (§1) The technique used to quantify the amount of a given protein in a liquid sample, either tissue culture supernatant or body fluid, is based on Enzyme Linked ImmunoSorbent Assay (ELISA) methodology. Either commercially available or established in house, the assay is based on the capture of the protein of interest by specific antibodies bound to the bottom of an ELISA plate well. Unbound material is washed away, the captured protein is then exposed to a secondary antibody generally labeled with horseradish peroxidase (HRP) or alkaline phosphatase (ALP). Again the unbound material is washed away, the samples are then incubated with the appropriate substrate yielding a colorimetric reaction. The reaction is stopped and reading is carried out in a spectrophotometer at the appropriate wavelength. Samples are tested at least in duplicate and the appropriate standard curve, consisting of serial dilutions of the recombinant target protein, is incorporated on each plate. Concentration of the protein in the sample is calculated from the standard curve.
RAW 264.7 macrophages, a mouse cell line (ATCC # TIB 71), were grown in Dulbecco's modified Eagle's medium (DMEM) with 4 mM L-glutamine adjusted to contain 1.5 g/L sodium bicarbonate, 4.5 g/L glucose, and 10% heat inactivated fetal bovine serum. […]

[2] = test system: iNOS gene expression; test: iNOS gene expression in MCAo mice brains; details: 5 mg/kg i.v., 18 hrs following MCAo
[3] = test system: IL-2 secretion; test: IL-2 secretion (ELISA) in activated Jurkat T cells; assay type: cell-based; details: Homo sapiens, supernatant 24 hours after activation, read-out: IC50 for inhibition of IL-2 secretion
From the text: as §1, with “Samples are tested at least in duplicate and the appropriate standard curve, consisting of serial dilutions of the recombinant target protein, is incorporated on each plate.” left out, “curve. […]” for “curve.”
In parallel, the supernatant from each well was collected 24 hours after the activation and analyzed for the presence of secreted IL-2 by ELISA. […] The absorbance measured at 450 nm is proportional to the concentration of IL-2 in the sample or standard. A standard curve is obtained by plotting the concentrations of recombinant IL-2 standards versus their absorbances. The IL-2 concentrations in experimental samples are then determined using the standard curve.

[4] = test system: Aspc-1; test: Aspc-1 pancreatic tumor cell proliferation (crystal violet); assay type: cell-based; details: up to 15 μM, 24 hours
Procedure: Cells from several tumor-derived cell lines are tested for their proliferation capacity in presence of our test compounds. Pancreatic tumor cell lines were obtained from ATCC. Panc-1 (ATCC # CRL-1469) were cultured in DMEM supplemented with 4 mM Glutamine, 4.5 g/L glucose, 1.5 g/L bicarbonate, antibiotics (penicillin, nystatin and streptomycin) and 10% heat inactivated fetal calf serum. Aspc-1 (ATCC # CRL-1682) were cultured in RPMI supplemented with 2 mM Glutamine, 10 mM HEPES, 1 mM sodium pyruvate, 4.5 g/L glucose, 1.5 g/L bicarbonate, antibiotics (penicillin, nystatin and streptomycin) and 20% heat inactivated fetal calf serum. Cells were seeded in a 24 well plate (10^5 cells/ml/well) and grown overnight. The cells are incubated with the test compounds (1-100 μM) or vehicle (0.1% DMSO final concentration). Cell viability was determined 24 hours later using standard crystal violet staining. The culture medium was removed from the wells and the cells were fixed by adding 1 ml/well of 2% formaldehyde in PBS for 10 minutes. […] The plates were agitated for 15 minutes at room temperature and 100 μl were transferred in duplicate to a 96 well plate for reading. Optical density (OD) of the cells was measured at 620 nm in an ELISA reader and results are expressed as % viable cells. Absorbance of untreated cells is recorded as 100%.

[5] = test system: COX-2 gene expression; test: COX-2 gene expression in LPS i.c.v. injected mice brains; assay type: in vivo; details: 20 mg/kg i.p., whole brain 6 hours after 100 ng LPS i.c.v.

CCCCCCC(C)(C)c1cc(O)c2c(c1)OC(C)(C)[C@H]1CC=C(CO)C[C@H]21 [dexanabinol, 1,1-dimethylheptyl-(3S,4S)-7-hydroxy-Δ^6-tetrahydrocannabinol] was tested. Which IC50 [1] did it give?
Its IC50 is 10 to 20 µM.

What about the “Modulation of iNOS gene expression” value [2] of the same compound?
The value was “not modulated”.

And the IC50 [3]?
Its IC50 is 8 µM.

And the “Effect on Aspc-1 proliferation” value [4]?
Its value is “not affected”.

What about the “Reduction in the level of COX-2 activation” value [5] of the same compound?
Its value is 53%.
